1 substance from patent US9241889B2, “Oral compositions comprising sodium dodecylbenzene sulfonate” (Glaxo Group Limited, priority 2010, dated 2016) can be followed below.

Test [1] in a line: Hydroxyapatite Stain Prevention Model (HASP). As for the experimental part:
A 96 well hydroxyapatite coated microtitre plate was treated with whole unstimulated human saliva (100 μl per well) at 37° C./100 rpm. After 1 hour the plate was washed to remove any unbound components and 200 μl of each test active was transferred to the plate in columns along with a positive and negative control (5% sodium tripolyphosphate, STP), and water respectively) and the plate returned to the incubator. After 10 minutes the plate was once again washed and the plate was stained by the application of 200 μl of fresh tea solution (1 teabag (PG tips)/50 ml of deionised water). After an additional 10 minutes of incubation, the tea was removed and the plate washed. Finally, the bound stain was desorbed by the application of 200 μl of 2.5M citric acid per well. After a minimum of 12 hours, 180 μl of the tea/citric acid solutions were transferred to a clean, normal (not HA coated) 96 well microtitre plate and the absorption measured 405 nm.

The nature of test [2]: Hydroxyapatite Tea Stain Removal Model (HATSR). The procedure:
A 96 well hydroxyapatite coated microtitre plate was treated with 100 μl aliquots of tea per well (1 teabag (PG Tips)/50 ml of deionised water) and the plate incubated at 37° C./100 rpm. After 10 minutes the plate was washed with deionised water and dried at 37° C. overnight. The test actives (200 μl per well) were added into each column of the tea coated plate along with the positive and negative control (5% sodium tripolyphosphate (STP) and water respectively) and the plate returned to the incubator. After 10 minutes the plate was once again washed and the bound stain was desorbed by the application of 200 μl of 2.5M citric acid per well. After a minimum of 12 hours, 180 μl of the tea/citric acid solutions were transferred to a clean, normal (not HA coated) 96 well microtitre plate and the absorption measured 405 nm.

“sodium dodecylbenzene sulphonate [SDDBS]”: the “stain prevention versus water negative control” value in test [1] (0.1% SDDBS, pH 7, FIG. 1) is “only directionally superior”; in test [1] (all SDDBS concentrations except 0.1%, pH 7, FIG. 1), “statistically superior to the water negative control”. Also, in test [1] (SDDBS solutions 0.1%-10%, pH 7, n=8, FIG. 1), the “stain prevention (uptake of dietary stain onto HASP model oral surfaces)” value was “prevents the uptake of dietary stain”. For the same substance, the “stain prevention versus positive control 5% STP” value in test [1] (all SDDBS concentrations 0.1%-10%, pH 7, FIG. 1) is given as “none were as effective as the positive control STP”. Besides, the “stain prevention versus SLS” value in test [1] (equivalent concentration (1% surfactant), pH 7, n=8, FIG. 3) is listed as “statistically superior to sodium lauryl sulphate (SLS)”. In addition, the stain removal result in test [2] (SDDBS solutions 0.1%-10%, pH 7, n=8, FIG. 2) is given as “removes stain in a dose dependent manner”. Moreover, the “stain removal versus water negative control” value in test [2] (all SDDBS concentrations except 0.125%, pH 7, FIG. 2) was “statistically superior to the water negative control”. For the same substance, the “stain removal versus positive control 5% STP” value in test [2] (all SDDBS concentrations, pH 7, FIG. 2) is listed as “none were as effective as the positive control STP”.
